Test results: patent publication US8338472B2, “Hexahydrocyclopentyl[F]indazole carboxamides and derivatives thereof as selective glucocorticoid receptor modulators” (Merck Sharp & Dohme Corp., priority 2008, dated 2012)
Read-outs that look alike come from different tables or passages of the source.

How the values were obtained:
Glucocorticoid Receptor = biological target: T1, Glucocorticoid Receptor (Homo sapiens, UniProt P04150); experiment: Trans-Activation Modulation of Glucocorticoid Receptor (GRAMMER), MMTV-LUC reporter gene in A549 cells; type: cell-based; conditions: Table 1; for Emax: A549, A549 cells, read-out: Transactivation A549 Cells GRAMMER Emax; for Emax / Transactivation A549 Cells GRAMMER Emax: Emax relative to 300 nM dexamethasone; for EC50: inflection point, read-out: Transactivation A549 Cells GRAMMER IP; for EC50 / Transactivation A549 Cells GRAMMER Emax: A549 cells
T1 construct: These cells express large amount of the GR and are very responsive to GC treatment; endogenous in cells; host or cells: A549 cells transiently transfected with the MMTV-LUC reporter
T1 sequence (P04150 1-777): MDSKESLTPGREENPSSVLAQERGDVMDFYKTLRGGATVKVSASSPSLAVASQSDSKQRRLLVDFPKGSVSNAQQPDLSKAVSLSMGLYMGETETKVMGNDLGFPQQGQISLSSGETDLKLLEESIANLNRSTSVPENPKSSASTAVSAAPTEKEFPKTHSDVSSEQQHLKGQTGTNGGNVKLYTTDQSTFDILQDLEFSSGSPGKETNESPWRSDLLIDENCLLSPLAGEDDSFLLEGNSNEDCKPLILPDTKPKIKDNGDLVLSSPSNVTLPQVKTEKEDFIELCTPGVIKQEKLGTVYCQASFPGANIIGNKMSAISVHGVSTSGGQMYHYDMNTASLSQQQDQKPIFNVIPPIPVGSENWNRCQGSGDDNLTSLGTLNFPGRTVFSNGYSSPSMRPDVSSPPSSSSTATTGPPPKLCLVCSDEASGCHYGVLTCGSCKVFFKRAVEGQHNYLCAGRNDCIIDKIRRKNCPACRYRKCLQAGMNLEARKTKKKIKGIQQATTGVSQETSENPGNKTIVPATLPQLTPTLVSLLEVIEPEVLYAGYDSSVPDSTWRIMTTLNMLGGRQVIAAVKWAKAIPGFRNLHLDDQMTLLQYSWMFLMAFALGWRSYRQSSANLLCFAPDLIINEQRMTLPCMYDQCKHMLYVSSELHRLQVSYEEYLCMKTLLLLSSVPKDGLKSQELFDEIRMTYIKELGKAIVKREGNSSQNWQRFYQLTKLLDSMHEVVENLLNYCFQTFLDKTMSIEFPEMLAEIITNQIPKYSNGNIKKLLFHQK
How it was run: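 Luciferase from a transiently transfected MMTV-LUC reporter was measured after 24 h compound exposure (≤1% DMSO) in A549 or MDA-MB-453 cells. For antagonism, the decrease of 10 nM dexamethasone-induced signal was calculated. For agonism, Emax was referenced to 300 nM dexamethasone.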

[1] = biological target: T2, glucocorticoid receptor (GR) (Homo sapiens, UniProt P04150); experiment: Ligand binding assay (GR BIND), 3H-dexamethasone displacement in MDA-MB-453 cell lysate; conditions: GR BIND Ki, Table 1
T2 sequence (P04150 1-777): T1 sequence (P04150 1-777)

human GR = biological target: T3, human GR (Homo sapiens, UniProt P04150); experiment: Transrepression Assay (GITAR), TNFα-β-lactamase reporter gene in U937 cells; type: cell-based; conditions: for GITAR Greater than by GRAMMER % SEP: GITAR Emax minus GRAMMER Emax; for EC50: inflection point, read-out: Transrepression U937 Cells GITAR IP; for EC50 / Transrepression U937 Cells GITAR Emax: U937 cells
T3 construct: U937 cells contain an endogenous glucocorticoid receptor (GR); endogenous in cells; host or cells: U937 cells stably transfected with the TNF-alpha promoter/beta-lactamase reporter
T3 sequence (P04150 1-777): T1 sequence (P04150 1-777)
How it was run: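 Repression of PMA (5 ng/ml final)/LPS (100 ng/ml final)-induced TNF-α promoter activity, read as β-lactamase cleavage of CCF2-AM, in stably transfected U937 cells expressing native GR. Compound added 30-45 min before stimulation, overnight (~18 hr) 37° C; normalized to 100 nM dexamethasone (100%).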

[2] = U-937, U937 cells, activity repressed by 100 nM dexamethasone = 100%, Table 1, read-out: Transrepression U937 Cells GITAR Emax
[3] = U-937, text statement, 100 nM dexamethasone = 100%, read-out: maximal activity in the transrepression assay (GITAR)
[4] = activity repressed by 100 nM dexamethasone = 100%, Table 1

With C[C@]12Cc3cnn(-c4ccc(F)cc4)c3C=C1CC[C@@H]2C(=O)N(CCO)Cc1csc2ccc(Cl)cc12 [Compound 31, (4αR,5S)-N-[(5-chloro-1-benzothien-3-yl)methyl]-1-(4-fluorophenyl)-N-(2-hydroxyethyl)-4α-methyl-1,4,4α,5,6,7-hexahydrocyclopenta[f]indazole-5-carboxamide] the Emax (Glucocorticoid Receptor) was 2.6%, the EC50 (Glucocorticoid Receptor) was 359 nM and the Ki [1] was 7.9 nM. For the same compound, the “GITAR Greater than by GRAMMER % SEP” value (human GR; Table 1) was 12.9%, the Emax (human GR; [2]) was 15.5% and the Emax (human GR; [3]) was greater than 5%. For the same compound, the EC50 (human GR; Table 1) was 1230 nM.
Cc1ccc(CCN(CC(O)CC(F)(F)F)C(=O)[C@H]2CCC3=Cc4c(cnn4-c4ccc(F)cc4)C[C@@]32C)cc1 (stereo partly drawn) [Compound 85, (4αR,5S)-1-(4-fluorophenyl)-4α-methyl-N-[2-(4-methylphenyl)ethyl]-N-(4,4,4-trifluoro-2-hydroxybutyl)-1,4,4α,5,6,7-hexahydrocyclopenta[f]indazole-5-carboxamide] showed an Emax (Glucocorticoid Receptor) of 14.2%, an EC50 (Glucocorticoid Receptor) of 399 nM and a Ki [1] of 3.5 nM. The “GITAR Greater than by GRAMMER % SEP” value (human GR; Table 1) was 31.1%, the Emax (human GR; [2]) was 45.3% and the Emax (human GR; [3]) was greater than 5%. It also gave an EC50 (human GR; Table 1) of 818 nM.
In the case of C[C@]12Cc3cnn(-c4ccc(F)cc4)c3C=C1CC[C@@H]2C(=O)N(CC1CCC1)CC1CCCO1 (stereo partly drawn) [Compound 64, (4αR,5S)-N-(cyclobutylmethyl)-1-(4-fluorophenyl)-4α-methyl-N-(tetrahydrofuran-2-ylmethyl)-1,4,4α,5,6,7-hexahydrocyclopenta[f]indazole-5-carboxamide], the Emax (Glucocorticoid Receptor) is reported as 27.1%, the EC50 (Glucocorticoid Receptor) is reported as 674 nM and the Ki [1] is reported as 1.9 nM. The “GITAR Greater than by GRAMMER % SEP” value (human GR; Table 1) was 9.5%, the Emax (human GR; [2]) was 36.6% and the Emax (human GR; [3]) was greater than 5%. For the same compound, the EC50 (human GR; Table 1) was 479 nM.
For Cc1ccc(CCN(CC(O)C(F)(F)F)C(=O)[C@H]2CCC3=Cc4c(cnn4-c4ccc(F)cc4)C[C@@]32C)cc1 (stereo partly drawn) [Compound 82, (4αR,5S)-1-(4-fluorophenyl)-4α-methyl-N-[2-(4-methylphenyl)ethyl]-N-(3,3,3-trifluoro-2-hydroxypropyl)-1,4,4α,5,6,7-hexahydrocyclopenta[f]indazole-5-carboxamide], the Emax (Glucocorticoid Receptor) was 10.3%, the EC50 (Glucocorticoid Receptor) was 274 nM and the Ki [1] was 0.9 nM. The “GITAR Greater than by GRAMMER % SEP” value (human GR; Table 1) was 32.8%, the Emax (human GR; [2]) was 43.1% and the Emax (human GR; [3]) was greater than 5%. It also gave an EC50 (human GR; Table 1) of 362 nM.
For C[C@H](O)CN(CCc1ccccc1F)C(=O)[C@H]1CCC2=Cc3c(cnn3-c3ccc(F)cc3)C[C@@]21C [Compound 69, (4αR,5S)-1-(4-fluorophenyl)-N-[2-(2-fluorophenyl)ethyl]-N-[(2S)-2-hydroxypropyl]-4α-methyl-1,4,4α,5,6,7-hexahydrocyclopenta[f]indazole-5-carboxamide], the Emax (Glucocorticoid Receptor) was 21.9%, the EC50 (Glucocorticoid Receptor) was 680 nM and the Ki [1] was 5.4 nM. For the same compound, the “GITAR Greater than by GRAMMER % SEP” value (human GR; Table 1) was 42.6%, the Emax (human GR; [2]) was 64.4% and the Emax (human GR; [3]) was greater than 5%. It also gave an EC50 (human GR; Table 1) of 714 nM.
Work on CCCCN(CC=O)C(=O)[C@H]1CCC2=Cc3c(cnn3-c3ccc(F)cc3)C[C@@]21C [Compound 39, (4αR,5S)-N-butyl-1-(4-fluorophenyl)-4α-methyl-N-(2-oxoethyl)-1,4,4α,5 ,6,7-hexahydrocyclopenta[f]indazole-5-carboxamide] yielded an Emax (Glucocorticoid Receptor) of 27%, an EC50 (Glucocorticoid Receptor) of 535 nM and a Ki [1] of 4.4 nM. For the same compound, the “GITAR Greater than by GRAMMER % SEP” value (human GR; Table 1) was 67.4%, the Emax (human GR; [2]) was 94.3% and the Emax (human GR; [3]) was greater than 5%. For the same compound, the EC50 (human GR; Table 1) was 125 nM.
For CN(C(=O)[C@H]1CCC2=Cc3c(cnn3-c3ccc(F)cc3)C[C@@]21C)C1CCCCC1 [Compound 44, (4αR,5S)-N-cyclohexyl-1-(4-fluorophenyl)-N,4α-dimethyl-1,4,4α,5,6,7-hexahydrocyclopenta[f]indazole-5-carboxamide], the Emax (Glucocorticoid Receptor) was 3.2%, the EC50 (Glucocorticoid Receptor) was 398 nM and the Ki [1] was 23.2 nM. For the same compound, the “GITAR Greater than by GRAMMER % SEP” value (human GR; Table 1) was 35.3%, the Emax (human GR; [2]) was 38.5% and the Emax (human GR; [3]) was greater than 5%. The EC50 (human GR; Table 1) was 1810 nM.
Work on C[C@]12Cc3cnn(-c4ccc(F)cc4)c3C=C1CC[C@@H]2C(=O)N(CCO)Cc1ccccc1F [Compound 25, (4α,5S)-N-(2-fluorobenzyl)-1-(4-fluorophenyl)-N-(2-hydroxyethyl)-4α-methyl-1,4,4α,5,6,7-hexahydrocyclopenta[f]indazole-5-carboxamide] yielded an Emax (Glucocorticoid Receptor) of 9.3%, an EC50 (Glucocorticoid Receptor) of 1440 nM and a Ki [1] of 12.5 nM. For the same compound, the “GITAR Greater than by GRAMMER % SEP” value (human GR; Table 1) was 38.7%, the Emax (human GR; [2]) was 48% and the Emax (human GR; [3]) was greater than 5%. It also gave an EC50 (human GR; Table 1) of 2740 nM.
C[C@]12Cc3cnn(-c4ccc(F)cc4)c3C=C1CC[C@@H]2C(=O)N(CCO)CC(O)C(F)(F)F (stereo partly drawn) [Compound 60, (4αR,5S)-1-(4-fluorophenyl)-N-(2-hydroxyethyl)-4α-methyl-N-(3,3,3-trifluoro-2-hydroxypropyl)-1,4,4α,5,6,7-hexahydrocyclopenta[f]indazole-5-carboxamide] showed an Emax (Glucocorticoid Receptor) of 55.6%, an EC50 (Glucocorticoid Receptor) of 46.3 nM and a Ki [1] of 12.6 nM. The “GITAR Greater than by GRAMMER % SEP” value (human GR; Table 1) was 29.8%, the Emax (human GR; [2]) was 85.4% and the Emax (human GR; [3]) was greater than 5%. For the same compound, the EC50 (human GR; Table 1) was 87.1 nM.
Work on C[C@]12Cc3cnn(-c4ccccc4)c3C=C1CC[C@@H]2C(=O)N(CC1CC1)CC(O)C(F)(F)F (stereo partly drawn) [Compound 81, (4αR,5S)-N-(cyclopropylmethyl)-4α-methyl-1-phenyl-N-(3,3,3-trifluoro-2-hydroxypropyl)-1,4,4α,5,6,7-hexahydrocyclopenta[f]indazole-5-carboxamide] yielded an Emax (Glucocorticoid Receptor) of 67.8%, an EC50 (Glucocorticoid Receptor) of 293 nM and a Ki [1] of 3.6 nM. For the same compound, the “GITAR Greater than by GRAMMER % SEP” value (human GR; Table 1) was 7.8%, the Emax (human GR; [2]) was 75.6% and the Emax (human GR; [3]) was greater than 5%. For the same compound, the EC50 (human GR; Table 1) was 337 nM.
For Cc1ccc(CN(CCO)C(=O)[C@H]2CCC3=Cc4c(cnn4-c4ccc(F)cc4)C[C@@]32C)cc1F [Compound 27, (4αR,5S)-N-(3-fluoro-4-methylbenzyl)-1-(4-fluorophenyl)-N-(2-hydroxyethyl)-4α-methyl-1,4,4α,5,6,7-hexahydrocyclopenta[f]indazole-5-carboxamide], the Emax (Glucocorticoid Receptor) was 10.2%, the EC50 (Glucocorticoid Receptor) was 2160 nM and the Ki [1] was 13.9 nM. For the same compound, the “GITAR Greater than by GRAMMER % SEP” value (human GR; Table 1) was 45.6%, the Emax (human GR; [2]) was 55.8% and the Emax (human GR; [3]) was greater than 5%. For the same compound, the EC50 (human GR; Table 1) was 1620 nM.
With C[C@]12Cc3cnn(-c4ccc(F)cc4)c3C=C1CC[C@@H]2C(=O)N(CCc1ccccc1F)CC(O)C(F)(F)F (stereo partly drawn) [Compound 93, (4αR,5S)-1-(4-fluorophenyl)-N-[2-(2-fluorophenyl)ethyl]-4α-methyl-N-(3,3,3-trifluoro-2-hydroxypropyl)-1,4,4α,5,6,7-hexahydrocyclopenta[f]indazole-5-carboxamide] the “Transactivation A549 Cells GRAMMER Emax” value (Glucocorticoid Receptor) was 61.7%, the EC50 (Glucocorticoid Receptor) was 277 nM and the Ki [1] was 1.1 nM. The “GITAR Greater than by GRAMMER % SEP” value (human GR; Table 1) was 5.9%, the “Transrepression U937 Cells GITAR Emax” value (human GR; [4]) was 67.5% and the EC50 (human GR; Table 1) was 172 nM.
With C[C@]12Cc3cnn(-c4ccc(F)cc4)c3C=C1CC[C@@H]2C(=O)N(CCc1ccccc1F)CC(O)C(F)(F)F (stereo partly drawn) [Compound 92, (4αR,5S)-1-(4-fluorophenyl)-N-[2-(2-fluorophenyl)ethyl]-4α-methyl-N(3,3,3-trifluoro-2-hydroxypropyl)-1,4,4α,5,6,7-hexahydrocyclopenta[f]indazole-5-carboxamide] the “Transactivation A549 Cells GRAMMER Emax” value (Glucocorticoid Receptor) was 40.2%, the EC50 (Glucocorticoid Receptor) was 285 nM and the Ki [1] was 1.5 nM. The “GITAR Greater than by GRAMMER % SEP” value (human GR; Table 1) was 4.7%, the “Transrepression U937 Cells GITAR Emax” value (human GR; [4]) was 44.9% and the EC50 (human GR; Table 1) was 143 nM.
C[C@]12Cc3cnn(-c4ccc(F)cc4)c3C=C1CC[C@@H]2C(=O)N(CCO)Cc1cc(F)c(F)c(F)c1 [Compound 28, (4αR,5S)-1-(4-fluorophenyl)-N-(2-hydroxyethyl)-4α-methyl-N-(3,4,5-trifluorobenzyl)-1,4,4α,5,6,7-hexahydrocyclopenta[f] indazole-5-carboxamide] showed an Emax (Glucocorticoid Receptor) of 10.6%, an EC50 (Glucocorticoid Receptor) of 1220 nM and a Ki [1] of 8.9 nM. For the same compound, the “GITAR Greater than by GRAMMER % SEP” value (human GR; Table 1) was 45.4%, the Emax (human GR; [2]) was 56% and the Emax (human GR; [3]) was greater than 5%. The EC50 (human GR; Table 1) was 1290 nM.
